For orientation: IC50 means the concentration at which inhibition is half-maximal.

Structures can show the parent of a compound that is named as a salt. Where two headings read alike, the source gives them in different places.

Type in all cases: cell-based, human
One assay relates to NCI-H460. In words: Inhibition test on cell proliferation (MTT), NCI-H460. The note with it: 72 hours of drug treatment, MTT, read-out: IC50 (nM) NCI-H460. As for the experimental part:
(§1) Tumor cells (NCI-H460, BxPC-3, HT-29, HCC-LM3) in the logarithmic growth phase were digested, centrifuged, and the supernatants were removed. Cells were resuspended by adding fresh culture medium, and counted using a cell counting plate. 100 μL of culture medium (containing cells) was added to a 96-well plate according to the standard of 2000 to 6000 cells per well and incubated in an incubator (37° C., 5% CO2) for 24 hours. After the cells were completely adhered to the wall, the test sample and Plinabulin were diluted to different concentrations using fresh culture medium, and 4 wells were set for each concentration. After 72 hours of drug treatment, the culture medium was removed, and 20 μL of MTT at a concentration of 5 mg/mL was added to each well. After 3-4 hours in the incubator, the MTT was discarded, and 100 μL of DMSO was added to each well, and placed in a 96-well plate shaker to completely dissolve the purple formazan. Subsequently, the absorbance (OD value) was detected at a wavelength of 490 nm using a microplate reader. The experiment also required setting up zero-setting wells (blank culture medium, MTT, DMSO). Cell inhibition rate=1−(OD value of drug-dosed group−OD value of zero-setting group)/(OD value of blank group−OD value of zero-setting group)×100%.

A further assay relates to BxPC-3. The assay is described as follows: Inhibition test on cell proliferation (MTT), BxPC-3. The note with it: 72 hours of drug treatment, MTT, read-out: IC50 (nM) BxPC-3. As for the experimental part:
as §1

For a further assay, the system named is HCC-LM3. The assay is described as follows: Inhibition test on cell proliferation (MTT), HCC-LM3. The note with it: 72 hours of drug treatment, MTT, read-out: IC50 (nM) HCC-LM3. As for the experimental part: as §1
For a further assay, the system named is HT-29. The assay is described as follows: Inhibition test on cell proliferation (MTT), HT-29. The following applies: 72 hours of drug treatment. The protocol:
as §1

In the case of `CC(C)c1c(/C=c2\[nH]c(=O)/c(=C/c3cc(F)cc(F)c3)[nH]c2=O)ncn1CCCN1CCOCC1` [PLN-2-62-2, (3Z,6Z)-3-(3,5-Difluorophenyl)methylene-6-((5-isopropyl-1-(3-morpholinyl)propylimidazol-4-yl)methylene)piperazine-2,5-dione, mesylate], the IC50 with NCI-H460 (mesylate) stood at 4.6 ± 1.33 nM; in the assay on BxPC-3 (mesylate) it was 3.66 ± 1.15 nM; in the assay with HCC-LM3 (mesylate), 3.99 ± 0.08 nM; with HT-29 (mesylate), 3.55 ± 0.04 nM.

For `CC(C)c1c(/C=c2\[nH]c(=O)/c(=C/c3cccc(C(=O)c4ccc(F)cc4)c3)[nH]c2=O)ncn1CCCN1CCN(C(=O)C2CCC2)CC1` [PLN-2-36, (3Z,6Z)-3-(3-(p-fluorobenzoyl)phenyl)methylene-6-((5-isopropyl-1-(3-N-cyclobutanoylpiperazinyl)propylimidazol-4-yl)methylene)piperazine-2,5-dione], the IC50 in the assay on NCI-H460 (Homo sapiens, NCI-H460, 72 h) came to 4.31 ± 0.59 nM; in the assay with BxPC-3 (Homo sapiens, BXPC-3, 72 h), 2.25 ± 1.22 nM; in the assay on HT-29 (Homo sapiens, HT-29, 72 h), 2.97 ± 0.51 nM.

`O=c1[nH]/c(=C\c2ncn(CCCN3CCOCC3)c2C2CC2)c(=O)[nH]/c1=C\c1cc(F)ccc1F` [PLN-2-8, (3Z,6Z)-3-(2,5-difluorophenyl)methylene-6-((5-cyclopropyl-1-(−3-morpholinyl)propylimidazol-4-yl)methylene)piperazine-2,5-dione]: the 50% inhibitory concentration (IC50) with NCI-H460 (Homo sapiens, NCI-H460, 72 h) came to 15.2 ± 2.82 nM; in the assay with BxPC-3 (Homo sapiens, BXPC-3, 72 h) it was 8.8 ± 0.16 nM; in the assay with HT-29 (Homo sapiens, HT-29, 72 h), 13.4 ± 2.08 nM.

In the case of `CC(C)c1c(/C=c2\[nH]c(=O)/c(=C/c3cccc(C(=O)c4ccc(F)cc4)c3)[nH]c2=O)ncn1CCCN1CCNCC1` [PLN-2-16, (3Z,6Z)-3-(3-(p-fluorobenzoyl)phenyl)methylene-6-((5-isopropyl-1-(3-piperazinyl)propylimidazol-4-yl)methylene)piperazine-2,5-dione], the IC50 in the assay with NCI-H460 (Homo sapiens, NCI-H460, 72 h) amounted to 25.6 ± 9.64 nM; in the assay on BxPC-3 (Homo sapiens, BXPC-3, 72 h), 5.92 ± 3.74 nM; with HT-29 (Homo sapiens, HT-29, 72 h), 11.1 ± 1.87 nM.

On to `CC(C)c1c(/C=c2\[nH]c(=O)/c(=C/c3cccc(C(=O)c4ccc(F)cc4)c3)[nH]c2=O)ncn1CCCN1CCOCC1` [PLN-2-1-2, (3Z,6Z)-3-(3-(p-Fluorobenzoyl)phenyl)methylene-6-((5-isopropyl-1-(3-morpholinyl)propylimidazol-4-yl)methylene)piperazine-2,5-dione, mesylate], for which the concentration for half-maximal inhibition (IC50) in the assay on NCI-H460 (Homo sapiens, NCI-H460, 72 h) was 1.95 ± 0.08 nM; in the assay with BxPC-3 (Homo sapiens, BXPC-3, 72 h) it was 1.33 ± 0.19 nM; in the assay with HCC-LM3 (mesylate), 1.85 ± 0.27 nM; in the assay with HT-29 (Homo sapiens, HT-29, 72 h), 1.42 ± 0.46 nM.

On to `CC(C)c1c(/C=c2\[nH]c(=O)/c(=C/c3cccc(F)c3)[nH]c2=O)ncn1CCCN1CCO[C@H](C)C1` [PLN-2-56-1, (3Z,6Z)-3-(3-Fluorophenyl)methylene-6-(5-isopropyl-1-(3-(R)-(2-methylmorpholinyl)propylimidazol-4-yl)methylene)piperazine-2,5-dione, hydrochloride], for which the concentration for half-maximal inhibition (IC50) came to 7.69 ± 0.28 nM with NCI-H460 (hydrochloride), 4.99 ± 0.19 nM in the assay on BxPC-3 (hydrochloride), 4.72 ± 0.73 nM in the assay with HCC-LM3 (hydrochloride) and 4.43 ± 0.13 nM in the assay on HT-29 (hydrochloride).

For the compound `CC(C)c1c(/C=c2\[nH]c(=O)/c(=C/c3cccc(F)c3)[nH]c2=O)ncn1CCCN1CCOCC1` [PLN-2-9-2, mesylate], the 50% inhibitory concentration (IC50) in the assay with NCI-H460 (mesylate) amounted to 8.49 ± 0.72 nM; with BxPC-3 (mesylate) it was 5.14 ± 0.52 nM; with HCC-LM3 (mesylate) it was 6.08 ± 0.51 nM; in the assay with HT-29 (mesylate), 5.84 ± 1.66 nM.

In the case of `CC(C)c1c(/C=c2\[nH]c(=O)/c(=C/c3cccc(C(=O)c4ccc(F)cc4)c3)[nH]c2=O)ncn1CCCN1CCN(C)CC1` [PLN-2-21, (3Z,6Z)-3-(3-(p-fluorobenzoyl)phenyl)methylene-6-((5-isopropyl-1-(3-N-methylpiperazinyl)propylimidazol-4-yl)methylene)piperazine-2,5-dione], the IC50 in the assay with NCI-H460 (Homo sapiens, NCI-H460, 72 h) stood at 23.9 ± 1.02 nM; in the assay on BxPC-3 (Homo sapiens, BXPC-3, 72 h) it was 15.3 ± 1.83 nM; in the assay on HT-29 (Homo sapiens, HT-29, 72 h), 13.8 ± 3.08 nM.

As for `CC(C)c1c(/C=c2\[nH]c(=O)/c(=C/c3ccc(F)c(F)c3)[nH]c2=O)ncn1CCCN1CCOCC1` [PLN-2-63-2, (3Z,6Z)-3-(3,4-Difluorophenyl)methylene-6-((5-isopropyl-1-(3-morpholinyl)propylimidazol-4-yl)methylene)piperazine-2,5-dione, mesylate], the IC50 in the assay with NCI-H460 (mesylate) was found to be 95.9 ± 3.66 nM; with BxPC-3 (mesylate), 50.9 ± 6.75 nM; with HCC-LM3 (mesylate), 69.5 ± 4.26 nM.

(Values after US20240140941A1, “DERIVATIVE OF 2,5-DIKETOPIPERAZINE COMPOUND, AND PREPARATION METHOD THEREFOR, PHARMACEUTICAL COMPOSITION THEREOF AND USE THEREOF” (DALIAN WZ PROBIOTICS AD HEALTH CO., LTD, priority 2020, published 2024).)
